pIC50: −log10 of the molar value. Where two headings read alike, the source gives them in different places.
How the values were obtained:
wild-type RET kinase = biological target: T1, wild-type RET kinase (Homo sapiens, UniProt P07949); test: Biochemical IC50 of wild-type RET kinase (33P-ATP filter binding, Reaction Biology)
T1 construct: purchased Reaction Biology Corporation (contract assay; enzyme is the CRO's)
Method: (§1) For detailed test methods, the following references were referred to: T. Anastassiadis, S. W. Deacon, K. Devarajan, H. Ma, J. R. Peterson. […] Nat. Biotech.
(§2) The compounds of the present invention were dissolved in dimethyl sulfoxide (DMSO) to prepare 10 mM stock solutions, and ten different doses by 3-fold serial dilutions from 10 mM were prepared. The ATP concentration used in this determination was 1 μM.
(§3) Base reaction buffer: 20 mM 4-(2-hydroxyethyl)-1-piperazineethanesulfonic acid buffer (Hepes, pH 7.5), 10 mM magnesium chloride, 1 mM ethylene glycol-bis(3-aminoethylether)-N,N,N′,N′-tetraacetic acid (EGTA), 0.02% Brij™-35 (purchased from ThermoFisher Scientific), 0.02 mg/mL bovine serum albumin (BSA), 0.1 mM sodium orthovanadate (Na3VO4), 2 mM dithiothreitol (DTT), 1% dimethyl sulfoxide (DMSO).
(§4) a) adding the corresponding substrate to a freshly prepared base reaction buffer;
(§5) b) adding necessary cofactors;
(§6) c) adding kinase and shake gently;
(§7) d) adding the compounds in DMSO using Acoustic technology (Echo550; nanoliter range) and incubating at room temperature for 20 minutes;
(§8) e) adding 33P-ATP (specific activity 10 μCi/μL) to initiate the reaction;
(§9) f) incubating the kinase reaction at room temperature for 2 hours;
(§10) g) spotting the resultant of reaction on P81 ion exchange paper (purchased from Whatman);
(§11) h) detecting kinase activity by filter binding assay.
(§12) IC50 values were generated using Prism (GraphPad software).

[1] = tested on: Phospho-ERK in LC-2/ad lung cancer cells; test: Phospho-ERK ELISA in LC-2/ad tumor cells; format: cell-based; conditions: Homo sapiens, 1 h, read-out: Cell IC50 Phospho-ERK
Method: (§13) The compounds of the present invention were dissolved in dimethyl sulfoxide (DMSO) to prepare 10 mM stock solutions, and ten different doses by 3-fold serial dilutions from 10 mM were prepared. An ELISA assay format was used in the test.
(§14) PathScan® Phospho-Ret (panTyr) and p44/42 MAPK (Thr202/Tyr204) (ERK) Sandwich ELISA kits were purchased from Cell Signaling Technology. The LC-2/ad lung cancer cell line was purchased from Sigma-Aldrich. […] The medium was supplemented with 10% fetal bovine serum (FBS), 100 μg/mL penicillin and 100 μg/mL streptomycin, and the cultures were maintained at 37° C. in a humidified atmosphere of 5% CO2 and 95% air.
(§15) a) 1.5×10^4 LC-2/ad cells were seeded in the wells of a 96-well tissue culture plate overnight;
(§16) b) the cells were treated with DMSO or the test compound in DMSO (the initial concentration was 1 μM, and ten doses by 3-fold serial dilutions) for one hour;
(§17) The plate was shaken for 1 minute, then placed on a rocking platform at 4° C. for 30 minutes;
(§18) d) 80 μL/well of lysate was added to the appropriate wells of each ELISA plate and the plate was incubated overnight at 4° C. on a rocking platform;
(§19) e) the contents of the plate were discarded into a container and the wells were washed for four times with 200 μL/well of 1×ELISA wash buffer;
(§20) f) 100 μL of reconstituted Phospho-Ret(panTyr) or Phospho-ERK(Thr202/Tyr204; p44/42MAPK) detection antibody was added to the appropriate wells and the plate was incubated at 37° C. for 1 hour;
(§21) g) the washing procedure was repeated and 100 μL of reconstituted HRP-linked secondary antibody was added to each well of two plates and the plates were incubated at 37° C. for 30 minutes;
(§22) h) the washing procedure was repeated, 100 μL of TMB substrate was added to each well, and the plates were incubated at 37° C. for 45 minutes;
(§23) i) 100 μL of STOP solution was added to each well and the plate was gently shaken for a few seconds.

[2] = tested on: Phospho-RET in LC-2/ad lung cancer cells; test: Phospho-RET ELISA in LC-2/ad tumor cells; format: cell-based; conditions: Homo sapiens, LC-2-ad, 1 h, read-out: Cell IC50 Phospho-RET
Method: as §13, §14, §15, §16, §17, §18, §19, §20, §21, §22, §23

RET(V804M) mutant = biological target: T2, RET(V804M) mutant (Homo sapiens, UniProt P07949, V804M); test: Biochemical IC50 of RET(V804M) mutant (33P-ATP filter binding, Reaction Biology)
T2 construct: purchased Reaction Biology Corporation (contract assay; enzyme is the CRO's)
Method: as §1, §2, §3, §4, §5, §6, §7, §8, §9, §10, §11, §12

RET-CCDC6 = biological target: T3, RET-CCDC6 (Homo sapiens, UniProt P07949); test: Biochemical IC50 of RET-CCDC6 fusion (33P-ATP filter binding, Reaction Biology)
T3 construct: CCDC6 (fusion partner, UniProt Q16204); purchased Reaction Biology Corporation (contract assay; enzyme is the CRO's); the other entry of the earlier key: CCDC6 (Q16204, Coiled-coil domain-containing protein 6)
T3 sequence (P07949 with tags, fused parts or gaps): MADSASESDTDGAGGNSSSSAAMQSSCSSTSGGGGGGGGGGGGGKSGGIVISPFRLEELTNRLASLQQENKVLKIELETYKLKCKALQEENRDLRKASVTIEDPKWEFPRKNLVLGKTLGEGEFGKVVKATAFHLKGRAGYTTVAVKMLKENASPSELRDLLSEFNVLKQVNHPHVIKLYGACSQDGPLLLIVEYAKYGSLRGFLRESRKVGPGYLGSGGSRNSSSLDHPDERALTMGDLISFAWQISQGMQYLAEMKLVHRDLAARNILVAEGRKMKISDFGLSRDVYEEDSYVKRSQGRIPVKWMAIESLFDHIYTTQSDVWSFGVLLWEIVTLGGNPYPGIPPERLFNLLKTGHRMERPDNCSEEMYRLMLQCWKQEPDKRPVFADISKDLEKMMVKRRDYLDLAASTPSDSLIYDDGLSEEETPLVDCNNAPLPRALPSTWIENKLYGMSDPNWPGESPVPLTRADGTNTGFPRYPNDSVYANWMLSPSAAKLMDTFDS
Method: as §1, §2, §3, §4, §5, §6, §7, §8, §9, §10, §11, §12

[3] = wild-type RET kinase, ATP 1 μM, 33P-ATP filter binding, read-out: Biochemical IC50 RET
[4] = RET(V804M) mutant, ATP 1 μM, 33P-ATP filter binding, read-out: Biochemical IC50 RET (V804M)
[5] = RET-CCDC6 fusion, ATP 1 μM, 33P-ATP filter binding, read-out: Biochemical IC50 RET-CCDC6

T1 sequence (P07949 29-1114): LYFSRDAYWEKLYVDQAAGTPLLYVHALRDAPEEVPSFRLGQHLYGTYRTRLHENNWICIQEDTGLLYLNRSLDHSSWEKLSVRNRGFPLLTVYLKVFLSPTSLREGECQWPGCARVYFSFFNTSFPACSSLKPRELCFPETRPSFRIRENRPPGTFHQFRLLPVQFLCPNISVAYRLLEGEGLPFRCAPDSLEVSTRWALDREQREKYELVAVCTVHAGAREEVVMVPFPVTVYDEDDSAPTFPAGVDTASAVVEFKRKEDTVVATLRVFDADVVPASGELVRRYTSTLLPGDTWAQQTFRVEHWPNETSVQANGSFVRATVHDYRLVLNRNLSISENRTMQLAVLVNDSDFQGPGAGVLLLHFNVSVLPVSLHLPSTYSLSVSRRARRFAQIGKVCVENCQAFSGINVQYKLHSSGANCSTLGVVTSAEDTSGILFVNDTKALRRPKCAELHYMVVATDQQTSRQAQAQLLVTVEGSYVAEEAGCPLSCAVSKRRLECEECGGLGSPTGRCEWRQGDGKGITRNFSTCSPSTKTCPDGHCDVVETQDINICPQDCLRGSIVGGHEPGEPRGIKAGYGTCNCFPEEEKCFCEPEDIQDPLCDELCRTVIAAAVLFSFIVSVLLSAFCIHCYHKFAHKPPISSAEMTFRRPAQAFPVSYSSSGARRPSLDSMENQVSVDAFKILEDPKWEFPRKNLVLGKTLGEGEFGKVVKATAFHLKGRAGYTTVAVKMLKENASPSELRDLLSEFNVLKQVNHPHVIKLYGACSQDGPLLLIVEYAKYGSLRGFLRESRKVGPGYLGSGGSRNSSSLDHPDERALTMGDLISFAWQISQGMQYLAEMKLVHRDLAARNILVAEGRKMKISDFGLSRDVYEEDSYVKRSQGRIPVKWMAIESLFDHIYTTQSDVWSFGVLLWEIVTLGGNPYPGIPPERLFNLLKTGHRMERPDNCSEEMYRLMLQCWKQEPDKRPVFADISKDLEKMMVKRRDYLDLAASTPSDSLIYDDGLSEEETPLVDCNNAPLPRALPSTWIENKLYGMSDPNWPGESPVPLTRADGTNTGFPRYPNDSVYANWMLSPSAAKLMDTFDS
T2 sequence (P07949 29-1114 V804M): as the sequence (P07949 29-1114) above, with V776M counted along it

For `COc1ccc(CN=S2(=O)CCN(c3ccc(-c4cc(-c5cnn(C)c5)cn5ncc(C#N)c45)cn3)CC2)cn1` [Ex. 14, 4-(6-(1-(((6-methoxypyridin-3-yl)methyl)imino)-1-oxothiomorpholinyl)pyridin-3-yl)-6-(1-methyl-1H-pyrazole-4-yl)pyrazolo[1,5-a]pyridine-3-carbonitrile], the pIC50 (wild-type RET kinase) was 9.18, the pIC50 [1] was 7.08 and the pIC50 [2] was 7.94. The pIC50 (RET(V804M) mutant) was 8.28 and the pIC50 (RET-CCDC6) was 9.47.
With `COc1ccc(CN=S2(=O)CCN(c3ccc(-c4nc(-c5cnn(C)c5)cn5ncc(C#N)c45)cn3)CC2)cn1` [Ex. 21, 4-(6-(1-(((6-methoxypyridin-3-yl)methyl)imino)-1-oxothiomorpholinyl)pyridin-3-yl)-6-(1-methyl-1H-pyrazole-4-yl)pyrazolo[1,5-a]pyrazine-3-carbonitrile] the pIC50 (wild-type RET kinase) was 8.99, the pIC50 [1] was 8.19 and the pIC50 [2] was 7.67. For the same molecule, the pIC50 (RET(V804M) mutant) was 8.11 and the pIC50 (RET-CCDC6) was 9.28.
`Cn1cc(-c2cc(-c3ccc(N4CCS(=N)(=O)CC4)nc3)c3c(C#N)cnn3c2)cn1` [Ex. 12, 4-(6-(1-imino-1-oxothiomorpholinyl)pyridin-3-yl)-6-(1-methyl-1H-pyrazole-4-yl)pyrazolo[1,5-a]pyridine-3-carbonitrile] was tested, and the pIC50 (wild-type RET kinase; [3]) was 9.07, the pIC50 [1] was 6.61 and the pIC50 [2] was 7.94. The pIC50 (RET(V804M) mutant; [4]) was 8.26 and the pIC50 (RET-CCDC6; [5]) was 9.28.
`Cn1cc(-c2cc(-c3ccc(N4CCC(N=[S@](C)(=O)c5ccccc5)CC4)nc3)c3c(C#N)cnn3c2)cn1` [Ex. 18, 4-(6-(4-(((R)—S-methyl-S-phenyl-oxo-λ^4-sulfinyl)amino)piperidin-1-yl)pyridin-3-yl)-6-(1-methyl-1H-pyrazole-4-yl)pyrazolo[1,5-a]pyridine-3-carbonitrile] showed a pIC50 (wild-type RET kinase; [3]) of 9.04, a pIC50 [1] of 8.17 and a pIC50 [2] of 8.15. It also gave a pIC50 (RET(V804M) mutant; [4]) of 8.33 and a pIC50 (RET-CCDC6; [5]) of 9.30.
Work on `Cn1cc(-c2cc(-c3ccc(N4CCC(N=S(C)(C)=O)CC4)nc3)c3c(C#N)cnn3c2)cn1` [Ex. 16, 4-(6-(4-((dimethyloxo-λ^4-sulfinyl)amino)piperidin-1-yl)pyridin-3-yl)-6-(1-methyl-1H-pyrazole-4-yl)pyrazolo[1,5-a]pyridine-3-carbonitrile] yielded a pIC50 (wild-type RET kinase) of 8.94, a pIC50 [1] of 8.14 and a pIC50 [2] of 7.18. For the same molecule, the pIC50 (RET(V804M) mutant) was 8.26 and the pIC50 (RET-CCDC6) was 9.21.
`COc1ccc(N=S2(=O)CCN(c3ccc(-c4cc(-c5cnn(C)c5)cn5ncc(C#N)c45)cn3)CC2)cn1` [Ex. 15, 4-(6-(1-((6-methoxypyridin-3-yl)imino)-1-oxothiomorpholinyl)pyridin-3-yl)-6-(1-methyl-1H-pyrazole-4-yl)pyrazolo[1,5-a]pyridine-3-carbonitrile] gave a pIC50 (wild-type RET kinase; [3]) of 9.12, a pIC50 [1] of 6.49 and a pIC50 [2] of 9.29. The pIC50 (RET(V804M) mutant; [4]) was 8.76 and the pIC50 (RET-CCDC6; [5]) was 9.29.
For `CC(C)CN=S1(=O)CCN(c2ccc(-c3cc(-c4cnn(C)c4)cn4ncc(C#N)c34)cn2)CC1` [Ex. 13, 4-(6-(1-(isobutylimino)-1-oxothiomorpholinyl)pyridin-3-yl)-6-(1-methyl-1H-pyrazole-4-yl)pyrazolo[1,5-a]pyridine-3-carbonitrile], the pIC50 (wild-type RET kinase) was 9.05, the pIC50 [1] was 8.18 and the pIC50 [2] was 7.79. The pIC50 (RET(V804M) mutant) was 8.29 and the pIC50 (RET-CCDC6) was 9.38.
